This note sets out measurements from US11434241B2, “Pyrimidine derivatives for prevention and treatment of bacterial infections” (UNIVERSITE DE LIEGE, priority 2018, dated 2022).

Experiment [1] deals with Staphylococcus epidermidis (ATCC 35984, also known as RP62A or MRSE). In words: MIC determination on S. epidermidis (EUCAST, OD600 after overnight growth in MHB). It counts as cell-based. As to the method:
The Minimal Inhibitory Concentration (MIC) of molecules 2329, 2348, 2412, 2452 and 2461 was determined on Staphylococcus epidermidis (ATCC 35984, also known as RP62A) according to EUCAST (European Committee on Antimicrobial Susceptibility Testing) recommendations.
Briefly, a single colony grown on a Tryptic Soy Agar (TSA) plate was resuspended and cultured in Tryptic Soy Broth (TSB) overnight (O/N) in aerobic conditions (37° C. with 220 rpm shaking), next day a 1:50 inoculum in Mueller-Hinton broth (MHB) was incubated in aerobic conditions for 3 hr and an inoculum of 1:100 dilution, corresponding to 3×10^5 CFU/ml, was incubated in presence or absence of different concentrations of the molecules in 1% DMSO (vehicle). After O/N growth the OD of each culture was measured at 600 nm in a spectrophotometer (OD600). The MIC represents the concentration at which there is no visible growth of bacteria, i.e. ΔOD at 600 nm equal to zero (blank is the medium alone).
The Minimal Inhibitory Concentration (MIC) of pyrazolopyrimidine molecules 2539, 2544, 2666,2676, 2693, 2783, 2784 and 2782 and of purine molecules 2498, 2511, 2525, 2527, 2833, and 2840 was determined on S. epidermidis (ATCC 35984, also known as RP62A or MRSE) according to EUCAST (European Committee on Antimicrobial Susceptibility Testing) recommendations.
Briefly, a single colony grown on an agar plate was resuspended and cultured in Triptic Soy Broth (TSB) medium overnight (O/N) in aerobic conditions (37° C. with 220 rpm shaking), next day a 1:50 inoculum in Mueller-Hinton broth (MHB) was incubated in aerobic conditions for 3 hr (OD=0.08-0.1) and an inoculum of 1:300 dilution, corresponding to 3×10^5 CFU/ml, was incubated in presence or absence of different concentrations of each of the molecules in 1% DMSO (vehicle). After O/N growth the OD of each culture was measured at 600 nm (600) in a spectrophotometer (Victor 3-Perkin Elmer). The MIC represents the concentration at which there is no visible growth of bacteria, i.e. ΔOD at 600 nm equal to zero (where ΔOD is the difference between the OD with the molecule and the OD of the blank, the medium alone).
Molecule 36z has been tested for its potential antibacterial activity by determining its minimal inhibitory concentration (MIC) according to protocols recommended by EUCAST to assess the efficacy of antibiotics against bacterial strains. In brief MIC in MRSA (ATCC BAA-1556) or in Xen29 (Perkin Elmer-ATCC 12600) for 36z (molecule 25 in WO2009/034386) was determined by culturing a single colony of MRSA or Xen29 in brain heart infusion (BHI) broth overnight (O/N) in aerobic conditions (37° C. with 220 rpm shaking), while MIC for MRSE (ATCC 35984) was determined by culturing MRSE in TSB O/N. Next day a 1:100 inoculum in Mueller-Hinton broth (MHB) is incubated in aerobic conditions for 3 hr (OD=0.08-0.1) and an inoculum of 1:300 dilution, corresponding to 3×10^5 CFU/ml, is incubated in presence or absence of different concentrations of the tested molecules in 1% DMSO. After O/N growth the OD of each culture was measured at 600 nm (OD600) in a spectrophotometer (Victor 3-Perkin Elmer). The MIC represents the concentration at which there is no visible growth of bacteria, i.e. ΔOD at 600 nm equal to zero (blank is the medium alone). No antibacterial activity was found against MRSA (ATCC BAA-1556), Xen29 (Perkin Elmer-ATCC 12600 or MRSE (ATCC 35984) strains when the molecule was used at concentrations up to 200 μM.

The test system of a further experiment is S. aureus ATCC 25904. In words: MIC determination on S. aureus ATCC 25904. Particulars: Staphylococcus aureus, ATCC25904, read-out: MIC S. aureus ATCC25904. It counts as cell-based. The method, then:
Further experiments are conducted using different strains of S. aureus, as clinically relevant Gram-positive bacterial strains: S. aureus ATCC 25904, methicillin-resistant S. aureus (MRSA) ATCC BAA-1556, Glycopeptide intermediate-resistant (GISA) S. aureus Mu-50 (ATCC 700695) in order to determine the Minimal Inhibitory Concentration (MIC) which is the minimal concentration required to prevent bacterial growth. The bioluminescent strain S. aureus Xen29 (ATCC 12600) was also used. This strain is derived from the parental strain S. aureus ATCC 12600, a pleural fluid isolate, which is also designated as NCTC8532.
A single colony selected from the different strains of S. aureus is resuspended and cultured in brain heart infusion (BHI) broth overnight (O/N) in aerobic conditions (37° C. with 220 rpm shaking), next day a 1:100 inoculum in Mueller-Hinton broth (MHB) is incubated in aerobic conditions for 3 hr (=OD0.08-0.1) and an inoculum of 1:300 dilution, corresponding to 3×10^5 CFU/ml, is incubated in presence or absence of different concentrations of the tested molecules in 1% DMSO. After O/N growth the OD of each culture was measured at 600 nm (OD600) in a spectrophotometer (Victor 3-Perkin Elmer). The MIC represents the concentration at which there is no visible growth of bacteria, i.e. ΔOD at 600 nm equal to zero (blank is the medium alone). […] The MIC of molecule 2329 against Glycopeptide intermediate-resistant (GISA) S. aureus Mu-50 (ATCC 700695) is in between 25 and 30 μM, while it is above 50 μM for molecules 2348, 2412, and 2452.

Experiment [2] deals with vancomycin-resistant (VRE) E. faecalis ATCC BAA-2365. In words: MIC determination on vancomycin-resistant E. faecalis. Particulars: Mueller-Hinton broth (MHB). It counts as cell-based, Enterococcus faecalis. As to the method:
Further experiments were conducted using the clinically relevant Gram-positive bacterial strain of vancomycin-resistant (VRE) E. faecalis ATCC BAA-2365, in order to determine the Minimal Inhibitory Concentration (MIC) which is the minimal concentration required to prevent bacterial growth.
A single colony selected from E. faecalis VRE is resuspended and cultured in the brain heart infusion (BHI) broth overnight (O/N) in aerobic conditions (37° C. with 220 rpm shaking), next day a 1:100 inoculum in Mueller-Hinton broth (MHB) is incubated in aerobic conditions for 3 hr (OD=0.08-0.1) and an inoculum of 1:300 dilution, corresponding to 3×10^5 CFU/ml, is incubated in presence or absence of different concentrations of the tested molecules in 1% DMSO. After O/N growth the OD of each culture is measured at 600 nm (OD600) in a spectrophotometer (Victor 3-Perkin Elmer). The MIC represents the concentration at which there is no visible growth of bacteria, i.e. ΔOD at 600 nm equal to zero (blank is the medium alone).

Where [3] appears, read: Staphylococcus epidermidis, Mueller-Hinton broth (MHB), read-out: MIC S. epidermidis RP62.

In brackets after ≈: the same amount, converted by molar mass. Read-outs that look alike come from different tables or passages of the source.

Broadly, the MIC is the smallest concentration in the dilution series that meets the test's criterion for growth inhibition. Take `CCn1cnc2c(N[C@@H]3C[C@H]3c3ccc(F)c(F)c3)nc(SC)nc21` [Molecule 2511, N-((1R,2S)-2-(3,4-difluorophenyl)cyclopropyl)-9-ethyl-2-(methylthio)-9H-purin-6-amine]: the “antibacterial activity / inhibition of MRSE growth (in words)” value in experiment [1] (MHB medium) is listed as “able to inhibit MRSE growth”. The MIC in experiment [1] (MHB medium, tested up to 100 μM, read-out: MIC MRSE) was over 100 µM; in experiment [1] (Staphylococcus epidermidis, MHB medium, tested up to 100 μM, read-out: MIC MRSE), over 100 µM.

Regarding `C=CCn1cnc2c(N[C@@H]3C[C@H]3c3ccc(F)c(F)c3)nc(SCCC)nc21` [Molecule 2412, 9-allyl-N-((1R,2S)-2-(3,4-difluorophenyl)cyclopropyl)-2-(propylthio)-9H-purin-6-amine], the values for the MIC (in the experiment on S. aureus ATCC 25904; in experiment [2]; in experiment [1] (setting [3])) were 20 to 25 µM (≈ 8.03 to 10 µg/mL), over 50 µM and over 50 µM, respectively.

In the case of `C#CCn1cnc2c(N[C@@H]3C[C@H]3c3ccc(F)c(F)c3)nc(SCCC)nc21` [Molecule 2452, N-((1R,2S)-2-(3,4-difluorophenyl)cyclopropyl)-9-(prop-2-yn-1-yl)-2-(propylthio)-9H-purin-6-amine], the MIC in the experiment on S. aureus ATCC 25904 is 20 to 25 µM (≈ 7.99 to 9.99 µg/mL); in experiment [2], over 50 µM; in experiment [1] (setting [3]) it was over 50 µM.

As to `CCSc1nc(N[C@@H]2C[C@H]2c2ccc(F)c(F)c2)c2cnn(C)c2n1.Cl` [Molecule 2666, N-((1R,2S)-2-(3,4-difluorophenyl)cyclopropyl)-6-(ethylthio)-1-methyl-1H-pyrazolo[3,4-d]pyrimidin-4-amine hydrochloride], the “antibacterial activity / inhibition of MRSE growth (in words)” value in experiment [1] (MHB medium) was “able to inhibit MRSE growth”. Further, the MIC in experiment [1] (Staphylococcus epidermidis, read-out: MIC MRSE) was 50 µM.

With `CCCSc1nc(N[C@@H]2C[C@H]2c2ccc(F)c(F)c2)c2ncn(C)c2n1` [Molecule 2329, N-((1R,2S)-2-(3,4-difluorophenyl)cyclopropyl)-9-methyl-2-(propylthio)-9H-purin-6-amine], the MIC was 20 to 25 µM (≈ 7.51 to 9.39 µg/mL) in the experiment with S. aureus ATCC 25904, 25 µM (≈ 9.39 µg/mL) in experiment [2] and 20 µM (≈ 7.51 µg/mL) in experiment [1] (setting [3]).

Turning to `CCCSc1nc(N[C@@H]2C[C@H]2c2ccc(F)c(F)c2)c2ncn(CC)c2n1` [Molecule 2348, N-((1R,2S)-2-(3,4-difluorophenyl)cyclopropyl)-9-ethyl-2-(propylthio)-9H-purin-6-amine], the values for the MIC (in the experiment with S. aureus ATCC 25904; in experiment [2]; in experiment [1] (setting [3])) were 20 to 25 µM (≈ 7.79 to 9.74 µg/mL), over 50 µM and 20 µM (≈ 7.79 µg/mL), respectively.
